These results are taken from article PMC11432330, “Novel Drug-like HsrA Inhibitors Exhibit Potent Narrow-Spectrum Antimicrobial Activities against Helicobacter pylori” (International Journal of Molecular Sciences, 2024).

≈ marks a conversion by molar mass, not a printed value. Where two headings read alike, the source gives them in different places.

For series [1], the system named is E. coli ATCC 25922. Kind of series: MIC/MBC according to EUCAST guidelines. The format is cell-based. The note with it: Escherichia coli, ATCC25922. On the procedure:
(§1) The antimicrobial activities of the selected compounds against several Gram-negative and Gran-positive representative species of normal human microbiota were determined according to the EUCAST guidelines. Briefly, standardized inoculums (0.5 McFarland) were freshly prepared from overnight Mueller–Hinton agar plates of reference strains E. coli ATCC 25922, K. pneumonia ATCC 700603, E. faecalis ATCC 29212, S. aureus ATCC 29213, S. epidermidis ATCC 12228, and S. agalactiae ATCC 12386. Next, bacterial suspensions adjusted to 5 × 10^5 CFU/mL in Mueller–Hinton broth were exposed to a range of concentrations from 64 to 0.031 mg/L of the selected compounds. DMSO and conventional antibiotics LVX and AMP were included as controls. […] Experiments were performed twice in triplicate.

Series [2] relates to E. faecalis ATCC 29212. Nature of the series: MIC/MBC according to EUCAST guidelines. The format is cell-based. The note with it: Enterococcus faecalis, ATCC29212. As for the experimental part: as §1
In series [3] the test system is S. agalactiae ATCC 12386. Nature of the series: MIC/MBC according to EUCAST guidelines. The format is cell-based. Conditions: Streptococcus agalactiae, ATCC12386. As for the experimental part:
as §1

The test system of series [4] is S. aureus ATCC 29213. Nature of the series: MIC/MBC according to EUCAST guidelines. The format is cell-based. Conditions: Staphylococcus aureus, ATCC29213. On the procedure: as §1
The test system of series [5] is S. epidermidis ATCC 12228. Kind of series: MIC/MBC according to EUCAST guidelines. Conditions: Staphylococcus epidermidis, ATCC12228. The format is cell-based. As for the experimental part:
as §1

Series [6] concerns H. pylori ATCC 43504 (MTZ-R). Kind of series: MIC/MBC, broth microdilution. The format is cell-based, Helicobacter pylori. The note with it: H. pylori ATCC 43504 (MTZ-R). As for the experimental part:
(§2) The antimicrobial activity of the HsrA inhibitors was evaluated by the determination of the minimal inhibitory concentration (MIC) against four different strains of H. pylori: ATCC 700392 (aka 26695), ATCC 43504 (MTZ-resistant reference strain), ATCC 700684 (CLR-resistant reference strain), and Donostia 2 (LVX-resistant clinical isolate). The MICs were determined by the broth microdilution method, as previously described. Briefly, H. pylori strains were grown in blood agar at 37 °C for 72 h under microaerobic conditions. Fresh inoculums adjusted at OD600 = 0.01 [~10^6 colony forming units (CFU) per mL] in BHI broth supplemented with 4% fetal bovine serum (BHI + FBS) were prepared and immediately exposed to final concentrations between 64 and 0.031 mg/L of each compound of interest. The compound solvent (DMSO) as well as conventional antibiotics (MTZ, CLR, LVX) were included as controls. […] Each experiment was performed twice in triplicate. The MIC and MBC values of the selected compounds against C. jejuni ATCC 33560 were determined by using the same method and culture conditions described for the H. pylori strains.
(In general: Dilution methods test growth across graded concentrations, often in twofold steps.)

For series [7], the system named is H. pylori ATCC 700392 (26695). Kind of series: MIC/MBC, broth microdilution. The format is cell-based, Helicobacter pylori. Conditions: H. pylori ATCC 700392 (26695). As for the experimental part: as §2
For series [8], the system named is H. pylori ATCC 700684 (CLR-R). Kind of series: MIC/MBC, broth microdilution. The format is cell-based, Helicobacter pylori. As for the experimental part: as §2
Series [9] concerns H. pylori Donostia 2 (LVX-R). Nature of the series: MIC/MBC, broth microdilution. Conditions: H. pylori Donostia 2 (LVX-R). The format is cell-based, Helicobacter pylori. As for the experimental part:
as §2

The subject of series [10] is C. jejuni ATCC 33560. Nature of the series: MIC/MBC, broth microdilution. The format is cell-based. Conditions: Campylobacter jejuni, ATCC33560, C. jejuni ATCC 33560. As for the experimental part: as §2
In series [11] the test system is K. pneumoniae ATCC 700603. Kind of series: MIC/MBC according to EUCAST guidelines. The format is cell-based, Klebsiella pneumonia. Conditions: Klebsiella pneumoniae, ATCC700603. As for the experimental part: as §1
For series [12], the system named is H. pylori. Also on record: method as in PMID 31383920, PMID 34354964. Conditions: ref [40],[70]; cited from earlier work.
In series [13] the test system is T1, HsrA (Helicobacter pylori 26695), ORF:12bb3c8f.
T1 sequence: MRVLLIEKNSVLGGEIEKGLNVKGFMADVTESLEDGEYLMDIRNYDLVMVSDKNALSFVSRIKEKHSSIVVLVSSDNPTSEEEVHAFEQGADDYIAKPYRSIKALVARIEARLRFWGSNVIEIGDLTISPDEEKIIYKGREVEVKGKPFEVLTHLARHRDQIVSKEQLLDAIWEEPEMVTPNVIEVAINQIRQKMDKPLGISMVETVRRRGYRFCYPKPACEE
Nature of the series: EMSA. Conditions: EMSA: 10 mM bis-Tris pH 7.5, 40 mM KCl, 100 mg/L BSA, 1 mM DTT, 5% glycerol; room temperature 20 min; 6% native gel, SYBR Safe. For orientation: In EMSA bound probe runs differently from free probe, usually more slowly.

[14] abbreviates: Helicobacter pylori, ATCC43504, read-out: MBC.
The mark [15] stands for this setting: Helicobacter pylori, ATCC43504, read-out: MIC.
The mark [16] stands for this setting: Helicobacter pylori, ATCC700392, read-out: MBC.
Where [17] appears, read: Helicobacter pylori, ATCC700392, read-out: MIC.
The mark [18] stands for this setting: Helicobacter pylori, ATCC700684, read-out: MBC.
[19] abbreviates: Helicobacter pylori, ATCC700684, read-out: MIC.
The mark [20] stands for this setting: Helicobacter pylori, read-out: MBC.
[21] abbreviates: Helicobacter pylori, read-out: MIC.

The MBC is the lowest tested concentration that kills the bacteria rather than only halting them. By MIC is commonly meant the smallest concentration in the dilution series that meets the test's criterion for growth inhibition. For `CC1(C)S[C@@H]2[C@H](NC(=O)[C@H](N)c3ccccc3)C(=O)N2[C@H]1C(=O)O` [AMP, ampicillin, reference compound], the MBC in [1] amounted to 4 µg/mL (≈ 11.4 µM); in [2] it was 4 µg/mL (≈ 11.4 µM); in [3], 0.5 µg/mL (≈ 1.43 µM); in series [4] it was 4 µg/mL (≈ 11.4 µM); in series [5] it was 4 µg/mL (≈ 11.4 µM). The MIC in series [1] came out at 4 µg/mL (≈ 11.4 µM); in [2] it was 4 µg/mL (≈ 11.4 µM); in series [3], 0.25 µg/mL (≈ 0.715 µM); in series [4], 2 µg/mL (≈ 5.72 µM); in [5], 4 µg/mL (≈ 11.4 µM).

`CC[C@H]1OC(=O)[C@H](C)[C@@H](O[C@H]2C[C@@](C)(OC)[C@@H](O)[C@H](C)O2)[C@H](C)[C@@H](O[C@@H]2O[C@H](C)C[C@H](N(C)C)[C@H]2O)[C@](C)(OC)C[C@@H](C)C(=O)[C@H](C)[C@@H](O)[C@]1(C)O` [CLR, clarithromycin, reference compound]: the MBC was < 0.03 µg/mL in series [6] (setting [14]), < 0.03 µg/mL in [7] (setting [16]), 32 µg/mL (≈ 42.8 µM) in series [8] (setting [18]) and < 0.03 µg/mL in series [9] (setting [20]). For the same molecule, the MIC was < 0.03 µg/mL in series [6] (setting [15]), < 0.03 µg/mL in series [7] (setting [17]), 16 µg/mL (≈ 21.4 µM) in series [8] (setting [19]) and < 0.03 µg/mL in [9] (setting [21]).

With `C[C@H]1COc2c(N3CCN(C)CC3)c(F)cc3c(=O)c(C(=O)O)cn1c23` [LVX, levofloxacin, reference compound], the MBC in series [6] (setting [14]) was 0.5 µg/mL (≈ 1.38 µM); in series [7] (setting [16]) it was 0.12 µg/mL (≈ 0.332 µM); in [8] (setting [18]) it was 0.12 µg/mL (≈ 0.332 µM); in [9] (setting [20]), 32 µg/mL (≈ 88.6 µM); in [10] it was < 0.12 µg/mL; in [11] it was 0.5 µg/mL (≈ 1.38 µM). The MIC in [6] (setting [15]) was 0.5 µg/mL (≈ 1.38 µM); in series [7] (setting [17]) it was 0.12 µg/mL (≈ 0.332 µM); in series [8] (setting [19]), 0.12 µg/mL (≈ 0.332 µM); in [9] (setting [21]) it was 16 µg/mL (≈ 44.3 µM); in series [10] it was < 0.12 µg/mL; in series [11] it was 0.5 µg/mL (≈ 1.38 µM).

For `NC(Cn1ccc(C(F)(F)F)n1)=NOC(=O)Nc1ccc(SC(F)(F)F)cc1` [Ligand IX], the minimum bactericidal concentration (MBC) in series [6] is 8 µg/mL (≈ 18.7 µM); in [7] it was 16 µg/mL (≈ 37.4 µM); in series [8] it was 8 µg/mL (≈ 18.7 µM); in [9] it was 16 µg/mL (≈ 37.4 µM). Besides, the MIC was found to be 4 µg/mL (≈ 9.36 µM) in [6], 8 µg/mL (≈ 18.7 µM) in series [7], 4 µg/mL (≈ 9.36 µM) in series [8] and 8 µg/mL (≈ 18.7 µM) in series [9].

For `CCOC(=O)c1ccc(-n2nnc(C=CC=CN3CCOCC3)n2)cc1` [Ligand XVII], the MBC in [6] was found to be 8 µg/mL (≈ 22.5 µM); in series [7], 16 µg/mL (≈ 45 µM); in [8], 8 µg/mL (≈ 22.5 µM); in series [9], 8 µg/mL (≈ 22.5 µM). Besides, the MIC was found to be 4 µg/mL (≈ 11.3 µM) in series [6], 16 µg/mL (≈ 45 µM) in [7], 8 µg/mL (≈ 22.5 µM) in series [8] and 8 µg/mL (≈ 22.5 µM) in series [9].

For `Cc1sc2c(c1C)C(O)=C(C(=O)Nc1ccc(OC(F)(F)F)cc1)S(=O)(=O)N2C` [Ligand XXVIII], the MBC in [6] is 16 µg/mL (≈ 35.7 µM); in series [7] it was 64 µg/mL (≈ 143 µM); in series [8] it was 32 µg/mL (≈ 71.4 µM); in series [9] it was 32 µg/mL (≈ 71.4 µM). Also, the MIC came to 16 µg/mL (≈ 35.7 µM) in series [6], 32 µg/mL (≈ 71.4 µM) in series [7], 32 µg/mL (≈ 71.4 µM) in series [8] and 32 µg/mL (≈ 71.4 µM) in series [9].

Regarding `CC(=O)Nc1cc(C(=O)c2cccs2)nn(-c2ccc(Cl)cc2)c1=O` [Ligand XXXI], the minimal bactericidal concentration (MBC) in series [6] was 64 µg/mL (≈ 171 µM); in [7], > 64 µg/mL; in series [8] it was > 64 µg/mL; in series [9], > 64 µg/mL. The minimal inhibitory concentration (MIC) in series [6] was 64 µg/mL (≈ 171 µM); in series [7], > 64 µg/mL; in series [8], > 64 µg/mL; in series [9], > 64 µg/mL.

On to `Cc1oc2ccccc2c1CC(=O)NNC(=S)Nc1cccc(C(F)(F)F)c1` [Ligand X], for which the MBC was 8 µg/mL (≈ 19.6 µM) in series [6], 16 µg/mL (≈ 39.3 µM) in [7], 8 µg/mL (≈ 19.6 µM) in [8] and 16 µg/mL (≈ 39.3 µM) in series [9]. The MIC in series [6], in [7], in [8] and in [9] was 8 µg/mL (≈ 19.6 µM) throughout.

In the case of `Cc1ncc([N+](=O)[O-])n1CCO` [MTZ, metronidazole, reference compound], the MBC in series [6] (setting [14]) is 128 µg/mL (≈ 748 µM); in [7] (setting [16]) it was 2 µg/mL (≈ 11.7 µM); in series [8] (setting [18]) it was 2 µg/mL (≈ 11.7 µM); in series [9] (setting [20]), 8 µg/mL (≈ 46.7 µM). The MIC in series [6] (setting [15]) came out at 64 µg/mL (≈ 374 µM); in series [7] (setting [17]) it was 1 µg/mL (≈ 5.84 µM); in series [8] (setting [19]), 1 µg/mL (≈ 5.84 µM); in [9] (setting [21]) it was 8 µg/mL (≈ 46.7 µM).

On to `O=c1cc(-c2ccccc2)oc2cc(O)cc(O)c12` [chrysin], for which the “Combinatory action with clarithromycin or metronidazole against H. pylori” value in series [12] is recorded as “strong synergistic bactericidal action”.

Regarding `COc1ccc([C@@H]2CC(=O)c3c(O)cc(O)cc3O2)cc1O` [hesperetin], in [12], the “Combinatory action with clarithromycin or metronidazole against H. pylori” value is “strong synergistic bactericidal action”.

As to “CCCCACACTTGCCCCATACAGACTAAAATCAAATCACACCTTAAATAATAACAAAGTTTAAAATAAATATTAGTGGTTTTTATTAAGAACGCTTGTCTTTTTAGAATAAATGGCCATAAAATAGCCATAATTCTTGTAGGTATGCCCCCATTTTCCTATAAAAATTCCTAAAAAGATATTGTTATAAGACACATTAATAGTTTTTCTTGTATAATTCTAGGCTGAATTCAATTTATTTTATACGATATTAAGGAGACATATTACCATGTTTCAAATTAGATGGCATGC (double strand) [PporG (porGDAB promoter)]”, in series [13], the binding entry is reported as “binds”.
